Results from ChEMBL document CHEMBL5030557, “Tandem Repeat of a Short Human Chemerin-Derived Peptide and Its Nontoxic d-Lysine-Containing Enantiomer Display Broad-Spectrum Antimicrobial and Antitubercular Activities” (J Med Chem, 2021).

Tested on: Mycobacterium tuberculosis variant bovis
Assay: Anti-mycobacterial activity against Mycobacterium bovis assessed as growth inhibition at 16.13 uM relative to control
Type: functional

Row | Compound | inhibition at 16.13 µM
1 | CC(C)C[C@H](NC(=O)[C@H](CCCNC(=N)N)NC(=O)CNC(=O)[C@H](CC(C)C)NC(=O)[C@@H](NC(=O)[C@@H](CCCCN)NC(=O)[C@@H](NC(=O)[C@H](CC(C)C)NC(=O)[C@H](CCCNC(=N)N)NC(=O)CNC(=O)[C@H](CC(C)C)NC(=O)[C@@H](NC(=O)[C@@H](N)CCCCN)C(C)C)C(C)C)C(C)C)C(=O)N[C@H](C(N)=O)C(C)C | 95%
2 | CC(C)C[C@H](NC(=O)[C@H](CCCNC(=N)N)NC(=O)CNC(=O)[C@H](CC(C)C)NC(=O)[C@@H](NC(=O)[C@H](CCCCN)NC(=O)[C@@H](NC(=O)[C@H](CC(C)C)NC(=O)[C@H](CCCNC(=N)N)NC(=O)CNC(=O)[C@H](CC(C)C)NC(=O)[C@@H](NC(=O)[C@@H](N)CCCCN)C(C)C)C(C)C)C(C)C)C(=O)N[C@H](C(N)=O)C(C)C | 80%
